Counter-ions that a name gives are not always drawn. Values belong to the compound of their own block, whether it stands above or below them.
Tests used:
[1] = Binding in human liver S9 fraction by equilibrium dialysis (RED); type: in vitro ADME; conditions: human, liver S9 fraction, pH 7.4, human liver S9, 1 mg/mL protein, equilibrium dialysis 37 °C 4 h, mean ± SD (n = 3); read-out: fu (%) in liver S9 fractions
Protocol: (§1) The nonspecific binding of KB-1517 and KB-1518 in human and mouse plasma and liver S9 fractions was determined by equilibrium dialysis using a Rapid Equilibrium Device (RED) system (Thermo Fisher Scientific, Seoul, Republic of Korea).
(§2) Working solutions (200 μM for plasma, 60 μM for S9 fractions) were prepared in 40% aqueous acetonitrile. These were diluted 20-fold into either plasma or S9 incubation buffer (1 mg/mL protein, 200 mM Tris-HCl, 2 mM MgCl2, pH 7.4) to create the final dosing solutions.
(§3) For the dialysis, RED inserts (8 kDa MWCO) were used. Into each device, 200 μL of a dosing solution was added to the sample chamber, and 350 μL of PBS was added to the buffer chamber. The plate was sealed and incubated at 37 °C for 4 h on an orbital shaker (100 rpm) to allow the system to reach equilibrium.
(§4) Following incubation, 50 μL aliquots were taken from both chambers. To ensure analytical consistency, the samples were matrix-matched: the sample chamber aliquot was mixed with 50 μL of PBS, and the buffer chamber aliquot was mixed with 50 μL of the corresponding blank matrix (plasma or S9 incubation buffer). Proteins were then precipitated by adding 200 μL of ice-cold acetonitrile containing diclofenac (1 μg/mL) as IS. The samples were subsequently vortexed, sonicated for 5 min, and centrifuged at 4000× g for 20 min. Finally, a 100 μL aliquot of the resulting supernatant was diluted with 100 μL of HPLC-grade water in a 96-well plate for subsequent LC-MS/MS analysis.

[2] = Binding in mouse liver S9 fraction by equilibrium dialysis (RED); type: in vitro ADME; conditions: ICR, mouse, liver S9 fraction, pH 7.4, mouse liver S9, 1 mg/mL protein, equilibrium dialysis 37 °C 4 h, mean ± SD (n = 3); read-out: fu (%) in liver S9 fractions
Protocol: as §1, §2, §3, §4

[3] = Metabolite identification in liver S9 incubations; type: in vitro ADME; conditions: S9 1 mg protein/mL, 60 min, 37 °C, H: human, M: mouse
Protocol: The incubation mixture (final volume 200 µL) contained: 125 µL of deionized water, 40 µL of Tris mix buffer, 10 µL of 20 mg protein/mL S9 fraction (final concentration 1 mg protein/mL), and 5 µL of the test compound working solution (final concentration 3 µM). The final concentrations of DMSO and acetonitrile were 0.03% and 1%, respectively. The mixture was pre-incubated at 37 °C for 5 min in a shaking water bath. The reaction was initiated by adding 20 µL of the combined cofactor solution (final concentrations: 1 mM NADPH, 0.5 mM UDPGA, 0.1 mM PAPS, 2.5 mM GSH). Control incubations were performed without the cofactor mixture (replaced with buffer) and at 0 min (quenched immediately after adding cofactors). Incubations were carried out at 37 °C for 0, 15, 30, and 60 min (for stability) or 60 min (for metabolite ID). Reactions were terminated by adding 200 µL of ice-cold acetonitrile containing IS (diclofenac).
Metabolite identification was performed using samples generated from the in vitro liver S9 incubations (final substrate concentration 20 µM, 60 min incubation) and plasma samples from the in vivo IP administration study. Samples were analyzed using an Agilent 6530 Q-TOF LC-MS/MS system (Agilent Technologies Korea Ltd., Seoul, Republic of Korea). Data processing and metabolite identification were performed using Agilent MassHunter Metabolite ID software (ver. B.04.00), searching for expected biotransformations (e.g., oxidation, demethylation, glucuronidation, sulfation, GSH conjugation) and comparing MS/MS fragmentation patterns of metabolites with the parent drug.
Qualitative analysis for metabolite identification was performed using the same LC system coupled to an Agilent 6530 Q-TOF mass spectrometer system (Agilent Technologies Korea Ltd., Seoul, Republic of Korea) with a dual AJS ESI source operating in positive ion mode. The chromatographic conditions were identical to those used for quantitative analysis.
The ion source parameters for the mass spectrometer were set as follows: gas temperature 325 °C, gas flow 12 L/min, nebulizer pressure 35 psi, sheath gas temperature 350 °C, and sheath gas flow 10 L/min. Data were acquired in MS scan mode (m/z 100–1000) and targeted MS/MS or Auto MS/MS mode. Data acquisition and processing were performed using Agilent MassHunter Qualitative Analysis (ver. B.05.00) and Metabolite ID software (ver. B.04.00).
To elucidate the metabolic pathways, metabolite identification studies were conducted using in vitro liver S9 fractions incubations (20 µM substrate) and in vivo plasma samples from mice administered an IP dose (200 µg/mouse). Metabolites were identified based on accurate mass measurements, isotopic patterns, and MS/MS fragmentation patterns compared to the parent compound using LC-Q-TOF MS/MS system (Agilent Technologies Ltd., Seoul, Republic of Korea).

[4] = Plasma protein binding by equilibrium dialysis (RED), mouse plasma; type: in vitro ADME; conditions: male, ICR, equilibrium dialysis 37 °C 4 h, mean ± SD (n = 3), read-out: fu (%) plasma protein binding
Protocol: as §1, §2, §3, §4

[5] = Plasma protein binding by equilibrium dialysis (RED), human plasma; type: in vitro ADME; conditions: equilibrium dialysis 37 °C 4 h, mean ± SD (n = 3), read-out: fu (%) plasma protein binding
Protocol: as §1, §2, §3, §4

[6] = tested on: flavin-containing monooxygenase (FMO) in MLM; test: FMO involvement: metabolic stability in control vs heat-inactivated mouse liver microsomes; type: in vitro ADME, male ICR mouse; conditions: pre-incubated 45 °C for 5 min vs control, 60 min incubation, NADPH
Protocol: (§5) To determine the potential involvement of flavin-containing monooxygenase (FMO), a parallel assay was conducted with HLM and MLM [31]. To selectively inactivate FMO, microsomes (20 mg protein/mL) were pre-incubated at 45 °C for 5 min. Non-inactivated microsomes served as the control. Subsequently, metabolic incubations were performed with both control and heat-inactivated microsomes at 37 °C for 60 min. The incubation procedure was identical to that described above for the S9 fractions, with the exception that NADPH was used as the sole cofactor.

[7] = tested on: flavin-containing monooxygenase (FMO) in HLM; test: FMO involvement: metabolic stability in control vs heat-inactivated human liver microsomes; type: in vitro ADME; conditions: pre-incubated 45 °C for 5 min vs control, 60 min incubation, NADPH
Protocol: as §5

Species in whose liver S9 the metabolite was detected ([3]; KB-1517 20 µM): H, M
Compound: CNCCn1c(=O)c2nc(-c3ccc(C(F)(F)F)cc3)oc2c2ccccc21 [KB-1517 M1]

Species in whose liver S9 the metabolite was detected ([3]; KB-1517 20 µM): H, M
Compound: C[N+](C)([O-])CCn1c(=O)c2nc(-c3ccc(C(F)(F)F)cc3)oc2c2ccccc21 [KB-1517 M2]

Species in whose liver S9 the metabolite was detected ([3]; KB-1518 20 µM): H, M
Compound: CN(CCO)c1nc2ccccc2c2oc(-c3ccc(C(F)(F)F)cc3)nc12 [KB-1518 M1]

Species in whose liver S9 the metabolite was detected ([3]; KB-1518 20 µM): H, M
Compound: C[N+](C)([O-])CCOc1nc2ccccc2c2oc(-c3ccc(C(F)(F)F)cc3)nc12 [KB-1518 M3]

Effect of heat inactivation (FMO) on metabolism [6]: significantly inhibited the metabolism
Effect of heat inactivation (FMO) on metabolism [7]: significantly inhibited the metabolism
Compound: CN(C)CCCOc1nn(Cc2ccccc2)c2ccccc12 [benzydamine, Benzydamine hydrochloride]

The remaining lines, values behind:

Compound: Cc1cc(=O)n(-c2ccccc2)n1C [Antipyrine, antipyrine, reference compound]
fraction unbound at 4 h, 3 µM [1]: 0.946 ± 0.026
fraction unbound at 4 h, 3 µM [2]: 0.937 ± 0.011

Compound: CCC(C)n1ncn(-c2ccc(N3CCN(c4ccc(OCC5COC(Cn6cncn6)(c6ccc(Cl)cc6Cl)O5)cc4)CC3)cc2)c1=O (stereo not drawn) [Itraconazole, itraconazole, reference compound]
fraction unbound at 4 h, 3 µM [1]: 0.028 ± 0.006
fraction unbound at 4 h, 3 µM [2]: 0.019 ± 0.002

Compound: OCCNc1nc2ccccc2c2oc(-c3ccc(C(F)(F)F)cc3)nc12 [KB-1518 M2]
Species in whose liver S9 the metabolite was detected ([3]; KB-1518 20 µM): H, M

Compound: CC(C)NCC(O)COc1cccc2ccccc12 (stereo not drawn) [Propranolol, propranolol]
fraction unbound at 4 h, 10 µM [4]: 0.247 ± 0.005
fraction unbound at 4 h, 10 µM [5]: 0.262 ± 0.026

Compound: CNC(=C[N+](=O)[O-])NCCSCc1ccc(CN(C)C)o1 [Ranitidine, ranitidine]
fraction unbound at 4 h, 10 µM [4]: 0.888 ± 0.054
fraction unbound at 4 h, 10 µM [5]: 0.85 ± 0.006
